From patent US20160175379A1, “COMBINATION THERAPY FOR THE TREATMENT OF ISCHEMIA-REPERFUSION INJURY” (STEALTH BIO THERAPEUTICS CORP, priority 2013, published 2016)

How the values were obtained:
[1] = system: acute myocardial infarction injury; test: Acute myocardial infarction injury (ischemia/reperfusion) in a rabbit model; format: in vivo, New Zealand white rabbits; conditions: 30 min ischemia, 3 h reperfusion, IV infusion, compared to the control (vehicle alone) group
Protocol: The effects of a combination of aromatic-cationic peptides and a cardiovascular agent in protecting against an acute myocardial infarction injury in a rabbit model are investigated.
New Zealand white rabbits are used in this study. The rabbits are males and >10 weeks in age. Environmental controls in the animal rooms are set to maintain temperatures of 61° to 72° F. and relative humidity between 30% and 70%. Room temperature and humidity are recorded hourly, and monitored daily. There are approximately 10-15 air exchanges per hour in the animal rooms. Photoperiod is 12-hr light/12-hr dark (via fluorescent lighting) with exceptions as necessary to accommodate dosing and data collection. Routine daily observations are performed. Harlan Teklad, Certified Diet (2030C), rabbit diet is provided approximately 180 grams per day from arrival to the facility. […]
In all cases, treatments are started approximately 10 min after the onset of a 30 min ischemic insult (coronary occlusion) and continued for up to 3 h following reperfusion. In all cases, cardiovascular function is monitored both prior to and during ischemia, as well as for up to 180 min (3 h) post-reperfusion. The experiments are terminated 3 h post-reperfusion (end of study); irreversible myocardial injury (infarct size by histomorphometery) at this time-point is evaluated, and is the primary-end-point of the study. […]

[2] = system: cardiac ischemia-reperfusion injury; test: Large animal model of acute myocardial infarction injury (cardiac ischemia-reperfusion); format: in vivo, sheep or pig; conditions: peptide given prior to ischemia
Protocol: The effects of aromatic-cationic peptides and cardiovascular agent in protecting against cardiac ischemia-reperfusion injury in a large animal model (e.g., a porcine or ovine model) are investigated.
The animals are sedated with intramuscular ketamine (50 mg/kg), glycopyrrolate (0.2 mg/kg), and buprenorphine (0.05 mg/kg). After intubation, animals are ventilated with a mechanical respirator (Hallowell EMC Model AWS; Hallowell, Pittsfield, Mass.) using room air enriched with 0.6 L/min oxygen. Catheters are introduced into a small auricular artery and vein, and into the right jugular vein for the continuous measurement of blood pressure and the administration of intravenous medications. […] Heart rate, blood pressure, surface electrocardiogram, and rectal temperature are continuously monitored (Hewlett Packard 78534C; Palo Alto, Calif.). […]
Animals undergo a left thoracotomy, and silicone vascular loops (Quest Medical, Allen, Tex.) are placed around the left anterior descending artery and its second diagonal branch, which is 40% of the distance from the apex to the base of the heart. […] Arterial blood pressure, heart rate, surface electrocardiograms (ECG), and rectal temperature are continuously monitored (Hewlett Packard 78534C; Palo Alto, Calif.) throughout the protocol in all animals. […]

D-Arg-2′6′-Dmt-Lys-Phe-NH2 [peptide]
infarct size and apoptotic cell death [1]: significantly reduced | redox ratio (RR) during ischemia [2]: blunted drop in the RR during ischemia
